Laboratory results: US11628162B2, “Methods of treating cancer with an FGFR inhibitor” (Incyte Corporation, priority 2019, dated 2023)
Several values for one entry are separate records, joined by “and”; a condition that tells them apart may be missing. Identical values can stand only once.

Legend:
[1] = human, in vivo
[2] = Phase 1 drug-drug interaction study: safety and tolerability (TEAEs); conditions: healthy male and female volunteers
Protocol: In addition, this study also evaluates the safety and tolerability of pemigatinib when administered alone or in combination with itraconazole or rifampin. Safety and tolerability is assessed by monitoring adverse events, vital signs, physical examinations, 12-lead ECGs, and clinical laboratory blood and urine sample assessments. Pharmacokinetic endpoints include tmax, AUC0-t, AUC0-∞, t1/2, CL/F, and Vz/F.
Vital signs (oral temperature; respiratory rate; automated, seated blood pressure; and pulse) are obtained at screening, check-in, and follow-up; at 0 hour (predose) on Days 1 and 8; and at approximately 1, 2, 3, 6, and 24 hours after the morning dose on Day 4 and Day 9. Clinical safety laboratory assessments are performed at screening; on Days −1, 2, 5, 9, 10, and 11; and at follow-up. A serum pregnancy is obtained at screening and follow-up. A urine pregnancy test is obtained at check-in for each visit for all women. On Day 8, a 12-lead ECG is performed predose, 2 hours postdose, and approximately 24 hours postdose. On other days, 12-lead ECGs are performed only at predose.
Vital signs (oral temperature; respiratory rate; automated, seated blood pressure; and pulse) are obtained at screening, check-in and follow-up; at 0 hour (predose) on Days 1 and 11; and at approximately 1, 2, 3, 6, and 24 hours after the morning dose on Days 4, 10, and 12. Clinical safety laboratory assessments are performed at screening; on Days −1, 2, 8, and 13; and at follow-up. A serum pregnancy test is obtained at screening and follow-up. A urine pregnancy test is obtained at check-in for each visit for all women. On Day 11, a 12-lead ECG is performed predose, 2 hours postdose, and approximately 24 hours postdose. On other days, 12-lead ECGs is performed only at predose.

[3] = Phase 1 drug-drug interaction study: single-dose pemigatinib PK alone or with itraconazole or rifampin
[4] = tested on: human liver microsomes; conditions: 0.5 h, 1 μM, pH 7.4
Protocol: Aliquots were taken at 0, 10, 20, and 30 minutes and denatured with methanol. After centrifugation to remove the denatured proteins, the resulting supernatants were analyzed by LC/MS.

[5] = Cohort 2: 13.5 mg pemigatinib alone or with rifampin 600 mg QD, geometric mean
[6] = Cohort 2: 13.5 mg pemigatinib alone or with rifampin 600 mg QD, mean ± SD

Row | SMILES | Decrease in half-life of pemigatinib following rifampin coadministration [1] [%] | Safety and tolerability (overall conclusion) [2] | AUC0-t [3, 5] [µM·h] | AUC0-∞ [3, 5] [µM·h] | CL/F [3, 5] [L/h] | Cmax [3, 5] [nM] | t1/2 [3, 5] | AUC0-t [3, 6] [µM·h] | AUC0-∞ [3, 6] [µM·h] | CL/F [3, 6] [L/h] | t1/2 [3, 6] [h] | Tmax ([3]; Cohort 2: 13.5 mg pemigatinib alone or with rifampin 600 mg QD, median) [h] | Cmax ([3]; Cohort 2: healthy volunteers n=18, single oral 13.5 mg pemigatinib fasted, alone or with rifampin 600 mg QD, mean ± SD) [nM] | Change in pemigatinib exposure on coadministration ([3]; with potent CYP3A4 inhibitor or inducer, healthy volunteers) | Mean Percent of Pemigatinib Remaining After 30-Minute Incubation (N = 3) [4] [%]
1 | CCN1C(=O)N(c2c(F)c(OC)cc(OC)c2F)Cc2cnc3[nH]c(CN4CCOCC4)cc3c21 [Pemigatinib + rifampin] | 63 | safe and generally well tolerated | 0.28 | 0.292 | 94.7 | 66.9 | 4.7 h and 4.69 h | 0.289 ± 0.0749 | 0.301 ± 0.0755 | 97.5 ± 23.8 | 5.05 ± 2.76 | 1.00 | 69.7 ± 20 | clinically significant decrease | 
2 | Nc1ccc(S(=O)(=O)Nc2ccnn2-c2ccccc2)cc1 [Sulfaphenazole] |  |  |  |  |  |  |  |  |  |  |  |  |  |  | 70 ± 3
3 | O=c1c(O)c(-c2ccc(O)c(O)c2)oc2cc(O)cc(O)c12 [Quercetin] |  |  |  |  |  |  |  |  |  |  |  |  |  |  | 77 ± 1
